Laboratory results taken from PMC11641365, “Evaluation of In Vitro Biological Activity of Flavanone/Chromanone Derivatives: Molecular Analysis of Anticancer Mechanisms in Colorectal Cancer” (International Journal of Molecular Sciences, 2024).

Legend:
Type in all cases: cell-based, human
HMEC-1 = assay: MTT cell viability assay, model of normal cells; conditions: difference of IC50 values
Procedure: The cytotoxic activity of the 3-benzylideneflavanones, 3-benzylidenechromanones derivatives (compounds 1, 2, 3, 4, 5) and 5′-(3-methoxyphenyl)-2-phenyl-4′,5′-dihydro-4H-spiro[chromano-3,3′-pirazol]-4-one (compound 3a) was evaluated using the MTT assay (4,5-dimethylthiazol-2-yl)-2,5-diphenyltetrazoliumbromide), a colorimetric method that quantifies cell viability.
Cell viability was determined using the metabolic microplate spectrophotometric assay with Methylthiazolyl diphenyltetrazolium bromide (MTT) (Sigma-Aldrich; St. Louis, MO, USA). The MTT method belongs to metabolic tests for determining cell viability and consists of measuring the absorbance of a violet solution of formazan, a product of the reduction of a water-soluble yellow MTT by oxidoreductive enzymes (mainly mitochondrial succinate dehydrogenase) of living cells. […]
The appropriate number of cells for a given cell line (6–8 × 10^3 cells/mL) were seeded onto colorless, sterile 96-well microplates (Nunc, Roskilde, Denmark) in the number appropriate for a given cell line. […] The absorbance of the formazan solution, after gentle mixing, was read at a wavelength of λ = 580 nm and a reference wavelength of λ = 720 nm (Biotek Power Wave HT, Biotek Instruments, Winooski, VT, USA). […] The absorbance of the control was taken as 100%.

LoVo = assay: Mitochondrial membrane potential (ΔΨm), JC-1 probe; conditions: compound at IC50, vs control
Excerpt: (§1) Changes in mitochondrial potential in cancer cells exposed to the tested derivatives were monitored using the fluorescent probe JC-1. In non-apoptotic cells, JC-1 aggregates emit red-orange fluorescence. During changes in mitochondrial membrane potential, such as those associated with the initiation of PCD stages (both hyperpolarization and depolarization of mitochondrial membranes), JC-1 is converted to monomers, emitting green fluorescence.
(§2) 5,5,6,6-Tetrachloro-1,1,3,3-tetraethylbenzimidazolylcarbocyanine iodide (JC-1) is one of the most reliable fluorescent probes used to assess changes in mitochondrial membrane potential (ΔΨ). In living cells with intact mitochondrial membranes, the lipophilic, cationic dye JC-1 penetrates the negatively charged mitochondrial matrix as a monomer, where it forms fluorescent aggregates with red-orange fluorescence (λex = 514 nm, λem = 590). […] The fluorescence ratio of aggregates (λem = 590 nm) and monomers (λem = 529 nm)—590 nm/529 nm—reflects the level of damage to the mitochondrial membrane.
(§3) Cells were seeded in black 96-well fluorometric microplates at a density of 10 × 10^3 cells/mL. […] Following treatment, the medium was removed, and the cell monolayers were washed twice with HBSS (140 mM NaCl, 5 mM KCl, 0.8 mM MgCl2, 1.8 mM CaCl2, 1 mM Na2HPO4, 10 mM HEPES, and 1% glucose). Then, 50 μL of a JC-1 solution in HBSS was added to each well, and the cells were incubated for 30 min in the dark at 37 °C (final JC-1 concentration 5 μM). After removing the fluorescent dye and replacing it with fresh HBSS, fluorescence measurements were taken using a Perkin-Elmer LS-5B spectrofluorometer (Perkin-Elmer LS-5B spectrofluorometer, Waltham, MA, USA). The excitation and emission wavelengths for JC-1 monomers were 514 nm and 529 nm, respectively, while for aggregates, they were 514 nm and 590 nm. The results were expressed as a percentage change in the fluorescence ratio of JC-1 aggregates to JC-1 monomers compared to the control, which was set at 100%.

HCT 116 = assay: Mitochondrial membrane potential (ΔΨm), JC-1 probe; conditions: compound at IC50, vs control
Excerpt: as §1, §2, §3

Caco-2 [1] = assay: Mitochondrial membrane potential (ΔΨm), JC-1 probe; conditions: compound at IC50, vs control
Excerpt: as §1, §2, §3

Caco-2 [2] = assay: Cell cycle analysis via flow cytometry (propidium iodide); conditions: compound at IC50, 24 h, vs control
Procedure: The most commonly used fluorescent dyes for cell cycle analysis are fluorochromes that penetrate the cell membrane into the interior of permeabilized cells and bind stoichiometrically to DNA via intercalation, e.g., DAPI, propidium iodide (PI). The analysis is performed on cells fixed in ethanol. In this work, the cell cycle analysis was performed using the method described by Darzynkiewicz and Juan.
Cells (10 × 10^3) were seeded in 35 mm dishes and cultured in the medium for 24 h to attain the logarithmic growth phase. […] Subsequently, cells were trypsinized and centrifuged for 10 min at 400× g at 4 °C. The cell suspension in 100 μL of PBS was fixed in 1 mL of 70% ethanol (−20 °C) and stored at this temperature until analysis. Immediately before analysis, the ethanol-fixed cell suspension was centrifuged at 10,000 rpm for 10 min at 4 °C. The pellet was washed with cold (4 °C) PBS to remove residual ethanol, and the cell suspension was centrifuged again under the same conditions. A volume of 300 μL of PBS containing 4 mg/mL propidium iodide (final concentration 75 μM) and 1 mg/mL RNAse A (final concentration 20 μg/mL) was added to the cell pellet and incubated for at least 30 min at 37 °C in the dark. Stained cells were analyzed using a flow cytometer (Becton Dickinson, Franklin Lakes, NJ, USA), counting 10,000 cells in each sample. Data were analyzed using FlowJo 10.10 software (FlowJo, Williamson Way Ashland, OR, USA).

SMILES: O=C1/C(=C/c2ccccc2)COc2ccccc21 [Compound 1]
- IC50 against HMEC-1 higher than for the majority of tested cancer cell lines (selectivity) (HMEC-1): approximately 10 µM
- Decrease in ΔΨm (depolarization) (LoVo): ~ 20%
- Change in mitochondrial membrane potential ΔΨm (HCT 116): no statistically significant changes
- Decrease in ΔΨm (depolarization) (Caco-2 [1]): ~ 30%
- Increase in the G2/M phase cell percentage (Caco-2 [2]): 30%
